# From patent US20140148477A1, “ANIMAL ECTOPARASITE-CONTROLLING AGENT AND METHOD FOR PREVENTING OR TREATING INFECTION IN ANIMALS CAUSED BY PARASITES BY USING THE CONTROLLING AGENT” (OTSUKA AGRITECHNO CO., LTD., priority 2011, published 2014)
# Assay: Dissolution in acetone when preparing the test solution
# Type: physicochemical
# Details: acetone added so that the concentration was 0.5 mg/ml
# Method: Acetone was added to each of Test Compounds 1 to 17 so that the concentration was 0.5 mg/ml, thereby preparing solutions.
smiles,measurement,value
COC(Cn1nc(-c2cc(F)cc(F)c2)cc1O[C@@H]1CCN(c2ccc(C(F)(F)F)cn2)C[C@@H]1C)OC [Test Compound 15],solubility in acetone,not dissolved in acetone
